Assays:
[1] = cited from earlier work
[2] = system: cultured human islets; settings: cultured human islets exposed to FK506; cited from earlier work
[3] = system: neonatal human islets; experiment: BrdU incorporation, β-cell proliferation in human islets; assay type: cell-based; settings: islets of donor, FK506 vs vehicle (FIG. 6G-H)
Procedure: Human islet studies. Human islet samples were obtained from healthy, non-diabetic organ donors deceased due to acute traumatic or anoxic death and offered by NDR1 (National Diseases Resource Interchange). Islets were isolated by Bottino, R. at the University of Pittsburg, or by Bryant, S, and Thompson A. at the University of Alabama, Birmingham. […] After isolation, islets were shipped directly to our laboratory and were transferred to fresh islet culture medium (RPMI 1640 with 4.5 mM glucose containing 10% FBS and 1% pen/strep). As with mouse islets, islet samples were split and treated with either vehicle (DMSO) or FK506 ([…], LC laboratories) for 72 hours, with medium changes every 24 hours. Islets were then handpicked with dithizone staining and aliquots of 1000 IEQ were spun down and snap frozen for mRNA isolation or crosslinked as described above for ChIP studies. BrdU analysis was performed on the donor batch by treating islets with 50 uM BrdU and chasing for 24 hrs. Afterwards, islets were placed in 2% agarose and processed within paraffin blocks as described above. Islets were immunostained for insulin and BrdU and β-cell proliferation rate was determined by quantifying the percentage of insulin+ and BrdU^+ cells. A minimum of 50 islets and over 2000 β-cells were scored per condition.

[4] = system: NFATc1; experiment: Chromatin immunoprecipitation (ChIP) of NFATc1 in mouse islets; assay type: cell-based
Procedure: (§1) Islets from P20 C57/BL6 mice were isolated (as above) and fixed with 1% formaldehyde for 10 minutes at room temperature. Cross-linking was quenched by the addition of 0.125 M glycine and islets were washed in DPBS. ChIPs were then performed using the EZ-Magna ChIP™ G Chromatin Immunoprecipitation Kit (Millipore), following the manufacturer's protocol. Briefly, following cell and nuclear lysis, islets were sonicated to shear chromatin using a Bioruptor Sonicator (Diagenode) at maximum power; set for 15 seconds ON followed by 45 seconds OFF for a total time of 10 minutes. Precleared chromatin from 200-300 islets was used for each ChIP sample with incubation of 1 to 10 ug of the appropriate antibodies overnight at 4° C. Before IP, 1/10 of the extract was saved for use as the input. Antibodies used for IP were mouse monoclonal anti-RNA Polymerase (1 ug, Millipore, 05-623B), rabbit anti-IgG (1 ug, Santa Cruz, sc-2027), and rabbit anti-NFATc1 (5 ug, Imgenex, #IMG-5101A). Resulting chromatin was then amplified using the GenomePlex WGA4 Whole Genome Amplification Kit (Sigma) and quantified using nanodrop. Equal amounts of chromatin DNA were then analyzed by quantitative PCR in the ABI Prism 7500 detection system (Applied Biosystems) using Power SYBR Green PCR Master Mix (Applied Biosystems). […]

[5] = system: cultured P10 islets; experiment: qRT-PCR of mRNA in cultured P10 mouse islets exposed to glucokinase activator with or without FK506; assay type: cell-based
Procedure: (§2) Quantitative Real-time RT-PCR. Mouse islets were isolated by standard collagenase pancreatic perfusion as previously described (Heit et al. (2006a), supra). Total islet mRNA was then isolated using the RNeasy Microkit (QIAGEN) according to the manufacturer's instructions and RNA amount and purity were assessed by Nanodrop spectrophotometry. Any remaining contaminant DNA was removed by treating samples with 1 unit of RNAse-free DNAse (Fermentas). Next, cDNA was prepared from 750 ng of total islet RNA using the RETROscript kit (Ambion) and analyzed by quantitative real-time PCR (QPCR) using TaqMan Universal PCR Master Mix (ABI) and the ABI Prism 7500 detection system. For culture studies, islets harvested from mice of the indicated genotype were placed in standard media (RPMI 1640 with 4.5 mM glucose containing 10% FBS and 1% pen/strep) at 37° C. and 5% CO2. For some experiments islets were maintained in media containing vehicle (DMSO), glucokinase activator (GKA) R0-28-1675 (10 μM; Axon Ligands) and/or FK506 (10 μM; LC Laboratories) for 72 hours, with media changes every 24 hours. Additionally, β-cells from MIP-EGFP islets were isolated using fluorescence-activated cell sorting as previously described (Sugiyama, T., et al. (2007). Conserved markers of fetal pancreatic epithelium permit prospective isolation of islet progenitor cells by FACS. Proc. Natl. Acad. Sci. U.S.A 104, 175-180) and processed as above for analysis by QPCR. Each quantitative analysis was performed in triplicate and islets from 3 to 6 mice of each genotype were independently tested. Data are normalized to β-actin and results are expressed as the mean±S.E.M.

[6] = system: human islets; experiment: qRT-PCR of mRNA in cultured human islets exposed to FK506; assay type: cell-based; settings: 72 hr
Procedure: Quantitative Real-time RT-PCR. Mouse islets were isolated by standard collagenase pancreatic perfusion as previously described (Heit et al. (2006a), supra). Total islet mRNA was then isolated using the RNeasy Microkit (QIAGEN) according to the manufacturer's instructions and RNA amount and purity were assessed by Nanodrop spectrophotometry. Any remaining contaminant DNA was removed by treating samples with 1 unit of RNAse-free DNAse (Fermentas). Next, cDNA was prepared from 750 ng of total islet RNA using the RETROscript kit (Ambion) and analyzed by quantitative real-time PCR (QPCR) using TaqMan Universal PCR Master Mix (ABI) and the ABI Prism 7500 detection system. Human islet studies. Human islet samples were obtained from healthy, non-diabetic organ donors deceased due to acute traumatic or anoxic death and offered by NDR1 (National Diseases Resource Interchange). Islets were isolated by Bottino, R. at the University of Pittsburg, or by Bryant, S, and Thompson A. at the University of Alabama, Birmingham. […] After isolation, islets were shipped directly to our laboratory and were transferred to fresh islet culture medium (RPMI 1640 with 4.5 mM glucose containing 10% FBS and 1% pen/strep). As with mouse islets, islet samples were split and treated with either vehicle (DMSO) or FK506 ([…], LC laboratories) for 72 hours, with medium changes every 24 hours. Islets were then handpicked with dithizone staining and aliquots of 1000 IEQ were spun down and snap frozen for mRNA isolation or crosslinked as described above for ChIP studies. BrdU analysis was performed on the donor batch by treating islets with 50 uM BrdU and chasing for 24 hrs. Afterwards, islets were placed in 2% agarose and processed within paraffin blocks as described above. Islets were immunostained for insulin and BrdU and β-cell proliferation rate was determined by quantifying the percentage of insulin+ and BrdU^+ cells. A minimum of 50 islets and over 2000 β-cells were scored per condition.

[7] = system: islets isolated from WT, P20 mice; experiment: qRT-PCR of mRNA in cultured neonatal mouse islets exposed to FK506; assay type: cell-based
Procedure: as §2

[8] = system: NFATc1; experiment: ChIP of NFATc1 on isolated human islets; assay type: cell-based; design: NFATc1 association at CCNA2, CCND2 and FOXM1 promoter sites: dose or concentration left out as unconfirmed
Procedure: as §1, with “Antibodies used for IP were mouse monoclonal anti-RNA Polymerase (1 ug, Millipore, 05-623B), rabbit anti-IgG (1 ug, Santa Cruz, sc-2027), and rabbit anti-NFATc1 (5 ug, Imgenex, #IMG-5101A).” left out
Human islet studies. […] Islets were immunostained for insulin and BrdU and β-cell proliferation rate was determined by quantifying the percentage of insulin+ and BrdU^+ cells. A minimum of 50 islets and over 2000 β-cells were scored per condition.

[9] = FK506 10 μM, vs vehicle (FIG. 4A)
[10] = WT P20 mouse islets, FK506 10 μM, 72 hr, vs vehicle (FIG. 3F)

GKA induction of CcnA2, CcnD2 and FoxM1 mRNAs ([5]; P10 islets, simultaneous exposure to FK506, 10 μM each, 72 hr (FIG. 7D)): attenuated or blocked
GKA elevation of Insulin 2 (Ins2) levels ([5]; WT P10 islets, GKA+FK506, 10 μM each, 72 hr (FIG. 7B)): blunted
GKA induction of NFATc1 mRNA ([5]; WT P10 islets, simultaneous exposure to FK506 and GKA, 10 μM each, 72 hr (FIG. 7A)): blocked
GKA increase of ChgA, ChgB, IAPP, and IA2 mRNAs ([5]; neonatal P10 islets, GKA+FK506, 10 μM each, 72 hr (FIG. 7C)): eliminated or significantly reduced
NFATc1 binding at CHGA, CHGB, IAPP, and IA2 sites ([8]; human islets, FK506 10 μM, 24 hr (FIG. 4B)): consistently reduced
SMILES: C=CC[C@@H]1/C=C(\C)C[C@H](C)C[C@H](OC)[C@H]2O[C@@](O)(C(=O)C(=O)N3CCCC[C@H]3C(=O)O[C@H](/C(C)=C/[C@@H]3CC[C@@H](O)[C@H](OC)C3)[C@H](C)[C@@H](O)CC1=O)[C@H](C)C[C@@H]2OC [FK506, tacrolimus]
incidence of diabetes mellitus ([1]; patients administered calcineurin inhibitors): high incidence
patients developing diabetes mellitus ([1]; patients requiring immunosuppression with calcineurin inhibitors): 10-30%
DCG numbers [2]: reduced
insulin secretion [2]: impaired
reduction of β-cell BrdU incorporation [3]: ~3 fold
NFATc1 binding at ChgA, ChgB and IA2 promoters ([4]; WT P20 mouse islets, FK506 24 hr (FIG. 3K)): reduced to levels comparable to IgG controls
NFATc1 binding at CcnD2, FoxM1 and CcnA2 promoter sites ([4]; WT neonatal mouse islets, FK506 24 hr (FIG. 5J)): consistently reduced NFATc1 binding to background levels
CCNA2, CCND2 and FOXM1 mRNA levels ([6]; vs vehicle (FIG. 6F)): significantly decreased
islet levels of mRNA encoding HNF4a [6, 9]: unaffected
mRNAs encoding INS, CHGA, CHGB, IAPP, and IA2 [6, 9]: reduction
levels of Hnf4a mRNA [7, 10]: remained unchanged
levels of Ins1, Ins2, ChgA, ChgB, IAPP and IA2 mRNA [7, 10]: significantly reduced
levels of CcnA2, CcnD2 and FoxM1 mRNAs ([7]; neonatal WT mouse islets, FK506, 72 hr, vs vehicle (FIG. 5E)): significantly decreased
NFATc1 association at CCNA2, CCND2 and FOXM1 promoter sites ([8]; neonatal human islets): FK506-sensitive

— patent publication US20140030234A1, “METHODS AND COMPOSITIONS FOR MODULATING ISLET BETA CELL DEVELOPMENT” (The Board of Trustees of the Leland Stanford Junior …, priority 2012, published 2014)
